Source: article PMC8333062, “Chemical tools for epichaperome-mediated interactome dysfunctions of the central nervous system” (Nature Communications, 2021)

Tests used:
[1] = system: epichaperome +ve (MDA-MB-468) tumors; assay: Small-animal PET, xenografted tumors; format: in vivo, mouse; settings: 48 h post-injection
Procedure: (§1) We opted for the use of xenografted MDA-MB-468 and ASPC1 tumors in mice (target-positive versus target-negative, respectively, with equal total HSP90 levels, Fig. 3b). Because PU-HZ151 rapidly distributes throughout the body (see Fig. 2a and further below), and taking in consideration the high concentration of chaperones in cells (>100 µM)[41], a bolus injection creates a rapid equilibrium mixture state. Subsequent to reaching an ‘equilibrium’ state throughout the body, PU-HZ151 then rapidly clears from plasma, which initiates a body-wide dilution state. Recording the differential concentration-time curves for PU-HZ151 in the two tumor types offers the relative dissociation rate constants, but most importantly, informs on probe’s epichaperome selectivity (Fig. 3a).
(§2) For subcutaneous xenografts, mice were anesthetized with 2% isoflurane (Baxter Healthcare) (2 l min^−1 medical air). […]
(§3) Orthotopic GBM xenografts in mice were established by injection of 5 × 10^5 cells in 2 μL PBS. […] PET data for each mouse was recorded using static scans of 15 min and acquired at the indicated times post injection. Quantification and %ID g^−1 values were calculated by manually drawing regions of interests in three different frames and determining the average values using ASI Pro VM™ MicroPET Analysis software (Siemens Medical Solutions, Knoxville, TX).

[2] = system: epichaperome -ve (ASPC1) tumors; assay: Small-animal PET, xenografted tumors; format: in vivo, mouse; settings: 48 h post-injection
Procedure: as §1, §2, §3

[3] = molecular target: T1, CYP2C19 (Homo sapiens, UniProt P33261); assay: Cytochrome P450 profiling, benzylnirvanol; format: in vitro ADME; settings: for % PU-HZ151 remaining: Benzylnirvanol
T1 construct: PU-HZ151 (1 µM) was incubated with human liver microsomes (0.5 mg protein mL^−1); tissue Life Technologies HMMCPL; host or cells: human liver microsomes
Procedure: To identify cytochrome P450 enzymes responsible for PU-HZ151’s metabolism in human liver microsomes the following procedure was followed. Phosphate buffer (100 mM, pH 7.4) was prepared monthly and stored at 4 °C. Frozen stock solutions of human liver microsomes (Life Technologies; Cat# HMMCPL) were used once after thawing and were not refrozen. NADPH stock solution (50 mM) in distilled water was prepared fresh daily. […] The stock solutions of these P450 inhibitors were prepared in DMSO. […] The concentration of the chemical inhibitors used in the assay were furafylline (10 μM), tranylcypromine (2 μM), ketoconazole (1 μM), troleandomycin (20 μM), orphenadrine (50 μM), montelukast (3 μM), sulfaphenazole (10 μM), benzylnirvanol (1 μM), quinidine (1 μM), and 1-aminobenzotriazole (1 mM) for all the P450 enzymes. Timing of the reactions was started following the addition of NADPH/magnesium chloride mix and PU-HZ151. Time-dependent chemical inhibitors (furafylline, troleandomycin, orphenadrine, and 1-aminobenzotriazole) were preincubated with human microsomes in the presence of NADPH and magnesium chloride for 15 min before the addition of PU-HZ151 and timing of reactions was started after addition of PU-HZ151. […] Following brief vortexing and centrifugation, a 200 µL aliquot of the supernatant was transferred to a tube, and 10 µL of haloperidol (1 µg mL^−1) as internal standard was added. Following brief vortexing and centrifugation, 50 µL of supernatant was added to a 96-well plate for subsequent LC-MS/MS analysis. PU-HZ151 was similarly tested as above in the absence of CYP inhibitors for comparative purposes. All samples were assayed in duplicate. […] This was similarly performed for incubations of PU-HZ151 performed in the absence of CYP inhibitor.

[4] = system: MDA-MB-468 cells; assay: Cell viability, ATP levels 72 h; format: cell-based, human; settings: control MDA-MB-468 of Fig. 6f; mean

T1 sequence (P33261 whole entry): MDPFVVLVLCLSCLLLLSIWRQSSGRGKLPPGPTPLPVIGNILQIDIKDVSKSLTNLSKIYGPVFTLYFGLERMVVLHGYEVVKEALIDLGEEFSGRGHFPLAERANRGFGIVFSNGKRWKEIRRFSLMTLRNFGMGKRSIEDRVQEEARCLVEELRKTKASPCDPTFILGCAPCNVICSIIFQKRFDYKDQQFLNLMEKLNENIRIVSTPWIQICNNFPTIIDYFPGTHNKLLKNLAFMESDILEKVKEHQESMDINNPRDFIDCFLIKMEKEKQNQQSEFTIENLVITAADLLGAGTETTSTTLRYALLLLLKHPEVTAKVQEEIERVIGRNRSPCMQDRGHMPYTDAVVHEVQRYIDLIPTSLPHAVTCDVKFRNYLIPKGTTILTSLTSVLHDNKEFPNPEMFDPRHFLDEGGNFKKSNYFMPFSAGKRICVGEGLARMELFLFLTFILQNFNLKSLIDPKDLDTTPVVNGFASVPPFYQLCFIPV

## CC(C)(C)CNCCn1c(Sc2cc3c(cc2I)OCO3)nc2c(N)ncnc21 [Compound 85]
[1]
  tumor retention by PET: clear retention and visualization of MDA-MB-468 tumors even at 48 h post-injection
[2]
  tumor retention by PET: no signal was noted in ASPC1 tumors
[3]; 15 min
  % PU-HZ151 remaining: 59.2%
[3]; 30 min
  % PU-HZ151 remaining: 39.3%
[3]; 60 min
  % PU-HZ151 remaining: 20.2%
[3]; benzylnirvanol
  inhibition of PU-HZ151 metabolism: 4%
[4]
  %Survival of cells at day 0 (ATP levels): -90%
